We go through one compound from ChEMBL document CHEMBL1150038, “Conformation of the CYP2D6 model substrate sparteine under physiological conditions” (Bioorg Med Chem Lett, 1993).

This data set is described as follows: pKa value was determined. Type of data set: physicochemical.

One may read the pKa as the pH at which an ionisable group is half protonated. Higher therefore signals a group that holds its proton tightly. In the case of `C1CCN2C[C@@H]3C[C@@H](CN4CCCC[C@@H]34)[C@H]2C1` [SPARTEINE], the pKa was found to be 11.4.
